According to patent publication US9085523B2, “Compound for treating cartilage disorders” (ONO PHARMACEUTICAL CO., LTD., priority 2011, dated 2015):

Experiments:
[1] = In vitro hydrolysis test in rabbit plasma (release of Compound A, LC/MS/MS); format: in vitro ADME; conditions: 37° C.
Procedure: The particles were retained inside articular cavity after intra-articular administration. The sustained period of active form inside articular cavity changes depending on hydrolysis period of a test compound. Therefore, the hydrolysis period of a test compound was evaluated and set as an indicator of sustained release of the active form.
Various test compounds were dissolved in dimethylsulfoxide, so that the concentration of the solution calculated in Compound A becomes 0.5 mg/mL. The solution (10 μL) was added to 0.5 mL of rabbit plasma and incubated at 37° C. in water bath. 50 μL of the solution was sampled 0, 1, 3, 8, 24, 30, 48 and 72 minutes after the incubation and the concentration of Compound A in sample was determined.
After 50 μL of the solution was sampled in a polyethylene tube, 10 μL of deuterium-labeled Compound A as internal standard and 2 mL of acetonitrile were added, followed by stirring. After centrifugation, 100 μL of the supernatant was sampled in a polyethylene tube and 900 μL of acetonitrile was added thereto, followed by stirring. After filtration, the supernatant was measured by LC/MS/MS and the 50% hydrolysis time was calculated.

[2] = tested on: knee cartilage defect model; experiment: Evaluation of cartilage tissue score in knee cartilage defect model; format: in vivo; conditions: rabbit, intra-articular, bi-weekly, 6 times; vs vehicle, Steel test
Procedure: Knee cartilage defect model was prepared by the following method. Female Japanese white domestic rabbit (2.5-3.5 kg) was anesthetized by the administration of sodium pentobarbital (30 mg/kg) through ear vein. The hair around knee articulations of both hind legs was removed and disinfected with iodine tincture. After the incision of the skin of an inert right hind leg, the boundary between patella ligament and articular capsule was incised in dorsal position. Patella was dislocated outward to expose trochlea femoris largely and medial condyle of femur was drilled with a dental drill to prepare small hole (diameter: 4 mm, depth: about 2 mm). The surgical incision was sutured and the surgical site was disinfected with iodine tincture. Femur of a left knee or both knees of pseudo-operation group was only exposed by the same operation without preparing small hole. To avoid infection disease, 100,000 units of benzylpenicilline procaine/125 mg titers of dihydrostreptomycin sulfate/I mg of procaine hydrochloride per rabbit was administered in gluteal muscle. A test compound (12-200 μg/knee, calculated in Compound A which is active form of test compounds) and its medium (5% glucose solution containing 0.05% Tween 80) were administered inside articular cavity of right knee of rabbit at bi-weekly intervals, 6 times for total, and from a week after operation. […]

[3] = tested on: blood pressure and heart rate of normal rabbit; experiment: Measurement of blood pressure and heart rate of normal rabbit; format: in vivo; conditions: for effect on circulatory system: at the dose exhibiting efficacy on the knee cartilage defect model, comparison of blood concentrations of Compound A
Procedure: Compound A acts on circulatory system and affects on blood pressure and heart rate.
Blood pressure and heart rate were measured by the following method using female Japanese white domestic rabbit. An animal was retained in dorsal position on an operation table on a measurement day. After the hair of right femur area was removed, a local anesthetic was given by administering an appropriate amount of lidocaine injection. The skin and muscle was incised to expose femur artery and vein, and a catheter (manufactured by Atom Medical Corporation) filled with saline containing heparin (about 10 units/mL) beforehand was placed in the right femur artery.
After retaining the rabbit in a rabbit blood sampling box (manufactured by NATSUME SEISAKUSHO CO LTD.), the catheter was connected to a pressure transducer (DX-100: manufactured by NIHON KOHDEN CORPORATION) to measure blood pressure with a strain pressure amplifier (AP-641G: manufactured by NIHON KOHDEN CORPORATION) and heart rate with an instantaneous heart rate counter (AT-601G: manufactured by NIHON KOHDEN CORPORATION). Blood pressure and waveform of heartbeat were recorded by a recorder (WR3701: manufactured by Graphtech Corporation). Measurement was conducted under awake condition after confirming blood pressure and heart rate became stable.
(§1) Compound A was administered cumulatively through right auricular vein with a syringe pump (manufactured by TERUMO CORPORATION) at 0 (medium: saline), 100, 300 and 1000 ng/kg/min (administration volume: 1 mL/kg/h). Each dose was administered for more than 60 minutes and blood was collected from left auricular vein 60 minutes after the administration started. Blood was collected with a 1 mL syringe with a needle of […] treated with heparin (about 10 units/mL) beforehand. The collected blood was centrifuged at 4° C. 13,500 g for 5 minutes and the obtained supernatant (plasma) was stored at […] to be provided for the measurement of blood concentration of Compound A.
Increase or decrease ratio of mean blood pressure and heart rate at 5, 10, 15, 20, 30, 40, 50 and 60 minutes after the administration started were calculated based on the values of pre-administration of each subject. Maximum change of blood pressure and heart rate between before and after the administration of Test Compounds was evaluated.

[4] = Blood concentration of Compound A during continuous intravenous administration to normal rabbit; format: in vivo; conditions: female, Japanese white, plasma, 60 minutes after administration started
Procedure: as §1

[5] = Particle forming: mean particle diameter (Dv) and particle distribution (PDI) of suspensions by laser diffraction; format: physicochemical; conditions: 5% glucose solution containing 0.05% Tween 80
Procedure: In the specification, the mean particle diameter means the mean particle diameter measured by a laser diffraction/scattering method. In the specification, the mean particle diameter is measured by a laser diffraction grain size distribution measuring apparatus (SALD-2100: manufactured by Shimadzu Corp.). In terms of mean particle diameter, various values such as volume mean diameter, surface mean diameter, median diameter and the like are used as an indicator of mean particle diameter, and in the specification, volume mean diameter (Dv) is used as a mean particle diameter.
In addition, a particle to be injected inside articular cavity is preferably a particle with a mean particle diameter with less variance and uniform size. The variance of mean particle diameter can be evaluated by measuring particle size distribution and the particle size distribution can be measured by a laser diffraction grain size distribution measuring apparatus as well as a mean particle diameter. […] In the description, PDI value and Dn was measured by a laser diffraction grain size distribution measuring apparatus (SALD-2100: manufactured by Shimadzu Corp.).
To distilled water, Compound 4-11 dissolved in ethanol was added slowly, 5% glucose solution and 5% glucose solution containing 0.05% Tween 80 with stirring. […] The quantity of each component is as follows, […]

[6] = rabbit, intravenous, 1000 ng/kg/min

Question: With `CCCCCCCCCCCCCCCC#CCOC(=O)CCC/C=C\C[C@@H]1[C@@H](/C=C/C[C@H](O)C2(CC)CCC2)[C@H](O)C[C@H]1Cl` [Compound 19, 2-octadecyn-1-yl(5Z)-7-{(1R,2R,3R,5R)-5-chloro-2-[(1E,4S)-4-(1-ethylcyclobutyl), 4-hydroxy-1-buten-1-yl]-3-hydroxycyclopentyl}-5-heptenoate] as the compound, how does the “Time of 50% hydrolysis” value [1] read?
Answer: Its value is 26.2 days.

Question: What about the cartilage tissue score [2] of the same compound?
Answer: Its cartilage tissue score is “significantly improved”.

Question: And the “effect on circulatory system” value [3]?
Answer: The value was “hardly affects on circulatory system”.

Question: Which “Time of 50% hydrolysis” value [1] does the source give for `CCCCCCCCCCCCCCCCc1ccc(C(=O)OCCCOC(=O)CCC/C=C\C[C@@H]2[C@@H](/C=C/C[C@H](O)C3(CC)CCC3)[C@H](O)C[C@H]2Cl)cc1` [Compound 6-4, 3-{[(5Z)-7-{(1R,2R,3R,5R)-5-chloro-2-[(1E,4S)-4-(1-ethylcyclobutyl)-4-hydroxy-1-buten-1-yl]-3-hydroxycyclopentyl}-5-heptenoyl]oxy}propyl 4-hexadecylbenzoate] here?
Answer: The value was 7.8 days.

Question: Which “blood concentration that does not affect blood pressure” value ([3]; rabbit) does the source give for `CCC(CCCCl)[C@@H](O)C/C=C/[C@@H]1[C@@H](C/C=C\CCCC(=O)O)[C@H](Cl)C[C@H]1O` (stereo partly drawn) [Compound A, (5Z)-7-{(1R,2R,3R,5R)-5-chloro-2-[(1E,4S)-4-(1-ethylchlorobutyl)-4-hydroxy-1-butenyl]-3-hydroxycyclopentyl}-5-heptenoic acid] here?
Answer: Its value is no more than 5.9 ng/mL.

Question: What about the “blood concentration that does not affect heart rate” value ([3]; rabbit) of the same compound?
Answer: The value was no more than 2.0 ng/mL.

Question: And the “increase of heart rate at maximum” value ([3]; rabbit, intravenous, 100 ng/kg/min)?
Answer: Its value is “about 5%”.

Question: What about the “increase of heart rate” value ([3]; rabbit, intravenous, 300 ng/kg/min) of the same compound?
Answer: The value was 15%.

Question: And the “decrease of blood pressure” value [3, 6]?
Answer: Its value is 16 mmHg.

Question: What about the “increase of heart rate” value [3, 6] of the same compound?
Answer: Its value is 20%.

Question: What about the “decrease of blood pressure at maximum” value ([3]; rabbit, intravenous, 100 and 300 ng/kg/min) of the same compound?
Answer: The value was no more than 5 mmHg.

Question: What about the concentration at 60 min ([4]; continuous intravenous 100 ng/kg/min) of the same compound?
Answer: The concentration at 60 min was 2 ng/mL.

Question: What about the concentration at 60 min ([4]; continuous intravenous 300 ng/kg/min) of the same compound?
Answer: Its concentration at 60 min is 5.9 ng/mL.

Question: And the concentration at 60 min ([4]; continuous intravenous 1000 ng/kg/min)?
Answer: Its concentration at 60 min is 24.3 ng/mL.

Question: What does the source list for `CCCCCCCCCCCCCCCOc1ccc(C(=O)OCCOC(=O)CCC/C=C\C[C@@H]2[C@@H](/C=C/C[C@H](O)C3(CC)CCC3)[C@H](O)C[C@H]2Cl)cc1` [Compound 4-11, 2-{[(5Z)-7-{(1R,2R,3R,5R)-5-chloro-2-[(1E,4S)-4-(1-ethylcyclobutyl)-4-hydroxy-1-buten-1-yl]-3-hydroxycyclopentyl}-5-heptenoyl]oxy}ethyl 4-(pentadecyloxy)benzoate]?
Answer: Time of 50% hydrolysis [1]: 7.3 days; effect on circulatory system [3]: hardly affects on circulatory system

Question: Which results are given for `CCCCCCCCCCCCCCCOc1cccc(C(=O)OCCOC(=O)CCC/C=C\C[C@@H]2[C@@H](/C=C/C[C@H](O)C3(CC)CCC3)[C@H](O)C[C@H]2Cl)c1` [Compound 4-1, 2-{[(5Z)-7-{(1R,2R,3R,5R)-5-chloro-2-[(1E,4S)-4-(1-ethylcyclobutyl)-4-hydroxy-1-buten-1-yl]-3-hydroxycyclopentyl}-5-heptenoyl]oxy}ethyl 3-(pentadecyloxy)benzoate]?
Answer: Time of 50% hydrolysis [1]: 10.6 days; effect on circulatory system [3]: hardly affects on circulatory system

Question: For `CCCCCCCCCCCCCCCCCC[N+](C)(C)CCOC(=O)CCC/C=C\C[C@@H]1[C@@H](/C=C/C[C@H](O)C2(CC)CCC2)[C@H](O)C[C@H]1Cl.[Br-]` [Reference Example 3, N-(2-{[(5Z)-7-{(1R,2R,3R,5R)-5-chloro-2-[(1E,4S)-4-(1-ethylcyclobutyl)-4-hydroxy-1-buten-1-yl]-3-hydroxycyclopentyl}-5-heptenoyl]oxy}ethyl)-N,N-di methyl-octadecyl ammonium bromide], which “particle forming in dispersion medium” value [5] is on record?
Answer: Its value is “did not form a particle”.
